# Legend:
# CCRF-CEM = test: NCI-60 SRB screen; type: cell-based; details: Homo sapiens, single dose 10^−5 M, read-out: Growth inhibition (%)
# HL-60(TB) = test: NCI-60 SRB screen; type: cell-based, human; details: Homo sapiens; HL-60 (TB); single dose 10^−5 M; read-out: Growth inhibition (%)
# K-562 = test: NCI-60 SRB screen; type: cell-based, human; details: Homo sapiens, K562; K-562; single dose 10^−5 M; read-out: Growth inhibition (%)
# MOLT-4 = test: NCI-60 SRB screen; type: cell-based; details: Homo sapiens; MOLT-4; single dose 10^−5 M; read-out: Growth inhibition (%)
# SR = test: NCI-60 SRB screen; type: cell-based; details: Homo sapiens, single dose 10^−5 M, read-out: Growth inhibition (%)
# A549/ATCC = test: NCI-60 SRB screen; type: cell-based, human; details: Homo sapiens, single dose 10^−5 M, read-out: Growth inhibition (%)
# EKVX = test: NCI-60 SRB screen; type: cell-based, human; details: Homo sapiens, single dose 10^−5 M, read-out: Growth inhibition (%)
# HOP-62 = test: NCI-60 SRB screen; type: cell-based, human; details: Homo sapiens; HOP-62; single dose 10^−5 M; read-out: Growth inhibition (%)
# HOP-92 = test: NCI-60 SRB screen; type: cell-based, human; details: Homo sapiens; HOP-92; single dose 10^−5 M; read-out: Growth inhibition (%)
# NCI-H226 = test: NCI-60 SRB screen; type: cell-based, human; details: Homo sapiens; NCI-H226; single dose 10^−5 M; read-out: Growth inhibition (%)
# NCI-H23 = test: NCI-60 SRB screen; type: cell-based, human; details: Homo sapiens; NCI-H23; single dose 10^−5 M; read-out: Growth inhibition (%)
# NCI-H322M = test: NCI-60 SRB screen; type: cell-based, human; details: Homo sapiens, single dose 10^−5 M, read-out: Growth inhibition (%)
# NCI-H460 = test: NCI-60 SRB screen; type: cell-based, human; details: Homo sapiens; NCI-H460; single dose 10^−5 M; read-out: Growth inhibition (%)
# NCI-H522 = test: NCI-60 SRB screen; type: cell-based, human; details: Homo sapiens; NCI-H522; single dose 10^−5 M; read-out: Growth inhibition (%)
# COLO 205 = test: NCI-60 SRB screen; type: cell-based, human; details: Homo sapiens; COLO 205; single dose 10^−5 M; read-out: Growth inhibition (%)
# HCT-116 = test: NCI-60 SRB screen; type: cell-based, human; details: Homo sapiens; HCT-116; single dose 10^−5 M; read-out: Growth inhibition (%)
# HCT-15 = test: NCI-60 SRB screen; type: cell-based, human; details: Homo sapiens; HCT-15; single dose 10^−5 M; read-out: Growth inhibition (%)
# HT-29 = test: NCI-60 SRB screen; type: cell-based; details: Homo sapiens; HT-29; single dose 10^−5 M; read-out: Growth inhibition (%)
# KM12 = test: NCI-60 SRB screen; type: cell-based, human; details: Homo sapiens; KM12; single dose 10^−5 M; read-out: Growth inhibition (%)
# SW-620 = test: NCI-60 SRB screen; type: cell-based; details: Homo sapiens; SW-620; single dose 10^−5 M; read-out: Growth inhibition (%)
# SF-268 = test: NCI-60 SRB screen; type: cell-based, human; details: Homo sapiens; SF-268; single dose 10^−5 M; read-out: Growth inhibition (%)
# SF-295 = test: NCI-60 SRB screen; type: cell-based, human; details: Homo sapiens; SF-295; single dose 10^−5 M; read-out: Growth inhibition (%)
# MALME-3M = test: NCI-60 SRB screen; type: cell-based, human; details: Homo sapiens, single dose 10^−5 M, read-out: Growth inhibition (%)
# M14 = test: NCI-60 SRB screen; type: cell-based, human; details: Homo sapiens; M14; single dose 10^−5 M; read-out: Growth inhibition (%)
# MDA-MB-435 = test: NCI-60 SRB screen; type: cell-based; details: Homo sapiens, MDA-MB-435, read-out: Growth inhibition (%)
# SK-MEL-2 = test: NCI-60 SRB screen; type: cell-based, human; details: Homo sapiens; SK-MEL-2; single dose 10^−5 M; read-out: Growth inhibition (%)
# SK-MEL-28 = test: NCI-60 SRB screen; type: cell-based; details: Homo sapiens; SK-MEL-28; single dose 10^−5 M; read-out: Growth inhibition (%)
# SK-MEL-5 = test: NCI-60 SRB screen; type: cell-based, human; details: Homo sapiens; SK-MEL-5; single dose 10^−5 M; read-out: Growth inhibition (%)
# UACC-257 = test: NCI-60 SRB screen; type: cell-based, human; details: Homo sapiens, UACC-257; UACC-275 (so in the source); single dose 10^−5 M; read-out: Growth inhibition (%)
# UACC-62 = test: NCI-60 SRB screen; type: cell-based, human; details: Homo sapiens; UACC-62; single dose 10^−5 M; read-out: Growth inhibition (%)
# IGROV1 = test: NCI-60 SRB screen; type: cell-based, human; details: Homo sapiens, IGROV-1; IGROV1; single dose 10^−5 M; read-out: Growth inhibition (%)
# OVCAR-3 = test: NCI-60 SRB screen; type: cell-based, human; details: Homo sapiens; OVCAR-3; single dose 10^−5 M; read-out: Growth inhibition (%)
# OVCAR-4 = test: NCI-60 SRB screen; type: cell-based, human; details: Homo sapiens; OVCAR-4; single dose 10^−5 M; read-out: Growth inhibition (%)
# OVCAR-8 = test: NCI-60 SRB screen; type: cell-based, human; details: Homo sapiens; OVCAR-8; single dose 10^−5 M; read-out: Growth inhibition (%)
# NCI/ADR-RES = test: NCI-60 SRB screen; type: cell-based, human; details: Homo sapiens, single dose 10^−5 M, read-out: Growth inhibition (%)
# SK-OV-3 = test: NCI-60 SRB screen; type: cell-based, human; details: Homo sapiens; SK-OV-3; single dose 10^−5 M; read-out: Growth inhibition (%)
# 786-0 = test: NCI-60 SRB screen; type: cell-based; details: Homo sapiens; 786-0; single dose 10^−5 M; read-out: Growth inhibition (%)
# ACHN = test: NCI-60 SRB screen; type: cell-based; details: Homo sapiens, single dose 10^−5 M, read-out: Growth inhibition (%)
# CAKI-1 = test: NCI-60 SRB screen; type: cell-based, human; details: Homo sapiens; CAKI-1; single dose 10^−5 M; read-out: Growth inhibition (%)
# RXF 393 = test: NCI-60 SRB screen; type: cell-based, human; details: Homo sapiens; RXF 393; single dose 10^−5 M; read-out: Growth inhibition (%)
# SN12C = test: NCI-60 SRB screen; type: cell-based, human; details: Homo sapiens, SN12C; SN 12 C; single dose 10^−5 M; read-out: Growth inhibition (%)
# TK-10 = test: NCI-60 SRB screen; type: cell-based, human; details: Homo sapiens; TK-10; single dose 10^−5 M; read-out: Growth inhibition (%)
# UO-31 = test: NCI-60 SRB screen; type: cell-based, human; details: Homo sapiens; UO-31; single dose 10^−5 M; read-out: Growth inhibition (%)
# [1] = test system: panel of 60 cancer cell lines; test: NCI-60 SRB screen, mean or range over the panel; type: cell-based, human; details: Homo sapiens; mean over the cell lines; single dose 10^−5 M; read-out: Mean growth inhibition (%)
structure (smiles),measurement,setting,value
"O=C1C(=Cc2ccccc2[N+](=O)[O-])Sc2c(F)cccc21 [Compound 2c, 7-Fluoro-2-(2-nitrobenzylidene)[1]benzothiophen-3(2H)-one]",inhibition at 10 µM,CCRF-CEM,26.3%
same,inhibition at 10 µM,HL-60(TB),28.8%
same,inhibition at 10 µM,K-562,67.8%
same,inhibition at 10 µM,MOLT-4,19.8%
same,inhibition at 10 µM,SR,37.2%
same,inhibition at 10 µM,A549/ATCC,4.91%
same,inhibition at 10 µM,EKVX,15.6%
same,inhibition at 10 µM,HOP-62,20.4%
same,inhibition at 10 µM,HOP-92,-11.4%
same,inhibition at 10 µM,NCI-H226,23.5%
same,inhibition at 10 µM,NCI-H23,13.3%
same,inhibition at 10 µM,NCI-H322M,1.98%
same,inhibition at 10 µM,NCI-H460,59.2%
same,inhibition at 10 µM,NCI-H522,2.94%
same,inhibition at 10 µM,COLO 205,-6.61%
same,inhibition at 10 µM,HCT-116,80.5%
same,inhibition at 10 µM,HCT-15,-1.05%
same,inhibition at 10 µM,HT-29,-7.17%
same,inhibition at 10 µM,KM12,3.27%
same,inhibition at 10 µM,SW-620,68.8%
same,inhibition at 10 µM,SF-268,5.43%
same,inhibition at 10 µM,SF-295,27%
same,inhibition at 10 µM,MALME-3M,12.6%
same,inhibition at 10 µM,M14,-1.11%
same,inhibition at 10 µM,MDA-MB-435,-12.1%
same,inhibition at 10 µM,SK-MEL-2,-9.11%
same,inhibition at 10 µM,SK-MEL-28,-4.83%
same,inhibition at 10 µM,SK-MEL-5,8.44%
same,inhibition at 10 µM,UACC-257,78.8%
same,inhibition at 10 µM,UACC-62,60.9%
same,inhibition at 10 µM,IGROV1,66.5%
same,inhibition at 10 µM,OVCAR-3,70.8%
same,inhibition at 10 µM,OVCAR-4,40.5%
same,inhibition at 10 µM,OVCAR-8,6.75%
same,inhibition at 10 µM,NCI/ADR-RES,13.5%
same,inhibition at 10 µM,SK-OV-3,2.42%
same,inhibition at 10 µM,786-0,-11%
same,inhibition at 10 µM,ACHN,7.28%
same,inhibition at 10 µM,CAKI-1,85.1%
same,inhibition at 10 µM,RXF 393,-3.1%
same,inhibition at 10 µM,SN12C,7.57%
same,inhibition at 10 µM,TK-10,-30.9%
same,inhibition at 10 µM,UO-31,29.9%
same,inhibition at 10 µM,[1],11.5%
"COc1ccc(C2NC(=O)C(Cl)c3c2sc2c(F)cccc32)c(OC)c1 (stereo not shown) [Compound 4a, 4-Chloro-1-(2,4-Dimethoxyphenyl)-8-fluoro-1,2-dihydro[1]benzothieno [2,3-c]pyridine-3(4H)-one]",inhibition at 10 µM,CCRF-CEM,-1.02%
same,inhibition at 10 µM,HL-60(TB),0.73%
same,inhibition at 10 µM,K-562,12.5%
same,inhibition at 10 µM,MOLT-4,4.69%
same,inhibition at 10 µM,SR,36.6%
same,inhibition at 10 µM,A549/ATCC,-4.25%
same,inhibition at 10 µM,EKVX,2.22%
same,inhibition at 10 µM,HOP-62,9.42%
same,inhibition at 10 µM,HOP-92,9.64%
same,inhibition at 10 µM,NCI-H226,13.6%
same,inhibition at 10 µM,NCI-H23,1.72%
same,inhibition at 10 µM,NCI-H322M,-4.72%
same,inhibition at 10 µM,NCI-H460,-1.09%
same,inhibition at 10 µM,NCI-H522,8.58%
same,inhibition at 10 µM,COLO 205,-16.7%
same,inhibition at 10 µM,HCT-116,-2.4%
same,inhibition at 10 µM,HCT-15,-9.27%
same,inhibition at 10 µM,HT-29,-10.5%
same,inhibition at 10 µM,KM12,3.86%
same,inhibition at 10 µM,SW-620,-0.16%
same,inhibition at 10 µM,SF-268,9.64%
same,inhibition at 10 µM,SF-295,-2.33%
same,inhibition at 10 µM,MALME-3M,9.21%
same,inhibition at 10 µM,M14,3.25%
same,inhibition at 10 µM,MDA-MB-435,8.55%
same,inhibition at 10 µM,SK-MEL-2,-23.2%
same,inhibition at 10 µM,SK-MEL-28,-1.74%
same,inhibition at 10 µM,SK-MEL-5,-1.74%
same,inhibition at 10 µM,UACC-257,-12.8%
same,inhibition at 10 µM,UACC-62,10.9%
same,inhibition at 10 µM,IGROV1,10.3%
same,inhibition at 10 µM,OVCAR-3,1.99%
same,inhibition at 10 µM,OVCAR-4,-1.63%
same,inhibition at 10 µM,OVCAR-8,-0.71%
same,inhibition at 10 µM,NCI/ADR-RES,-5.94%
same,inhibition at 10 µM,SK-OV-3,0.53%
same,inhibition at 10 µM,786-0,4.93%
same,inhibition at 10 µM,ACHN,12.4%
same,inhibition at 10 µM,CAKI-1,27.5%
same,inhibition at 10 µM,RXF 393,-0.71%
same,inhibition at 10 µM,SN12C,9.45%
same,inhibition at 10 µM,TK-10,-25.5%
same,inhibition at 10 µM,UO-31,40.3%
same,inhibition at 10 µM,[1],1.85%

# Source: PMC8330742, “New benzothieno[2,3-c]pyridines as non-steroidal CYP17 inhibitors: design, synthesis, anticancer screening, apoptosis induction, and in silico ADME profile studies” (Journal of Enzyme Inhibition and Medicinal Chemistry, 2021)
